# Results from ChEMBL document CHEMBL5126566, “Comparison of three zinc binding groups for HDAC inhibitors - A potency, selectivity and enzymatic kinetics study” (Bioorg Med Chem Lett, 2022).
# The source made the active and inactive calls. The calls are words filed in the database; no cut-off is given here.
# Legend:
# [1] = target: T1, Histone deacetylase 2 (Homo sapiens, UniProt Q92769); experiment: Inhibition of HDAC2 (unknown origin) at 1 uM preincubated for 1 hr followed by 100-fold dilution and subsequent substrate addition measured after 1 hr; details: time 2.0 hrs
# T1 sequence (Q92769 whole entry): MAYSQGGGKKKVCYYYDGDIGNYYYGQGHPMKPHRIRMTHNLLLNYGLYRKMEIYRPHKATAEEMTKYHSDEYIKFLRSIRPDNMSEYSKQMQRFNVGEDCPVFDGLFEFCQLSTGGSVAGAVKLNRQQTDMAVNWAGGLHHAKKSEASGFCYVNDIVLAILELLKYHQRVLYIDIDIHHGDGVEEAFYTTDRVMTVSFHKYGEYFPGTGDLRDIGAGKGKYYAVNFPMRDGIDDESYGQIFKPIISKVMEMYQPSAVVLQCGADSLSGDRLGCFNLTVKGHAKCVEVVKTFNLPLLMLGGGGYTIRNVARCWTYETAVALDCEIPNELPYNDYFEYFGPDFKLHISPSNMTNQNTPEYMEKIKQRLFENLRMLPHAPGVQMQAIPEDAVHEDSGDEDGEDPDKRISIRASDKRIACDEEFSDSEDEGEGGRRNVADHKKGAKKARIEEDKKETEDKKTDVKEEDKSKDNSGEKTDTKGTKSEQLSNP
# [2] = target: Histone deacetylase 9 (Homo sapiens, UniProt Q9UKV0); experiment: Inhibition of HDAC9 (unknown origin)
# Chain of Histone deacetylase 9 (Q9UKV0 whole entry): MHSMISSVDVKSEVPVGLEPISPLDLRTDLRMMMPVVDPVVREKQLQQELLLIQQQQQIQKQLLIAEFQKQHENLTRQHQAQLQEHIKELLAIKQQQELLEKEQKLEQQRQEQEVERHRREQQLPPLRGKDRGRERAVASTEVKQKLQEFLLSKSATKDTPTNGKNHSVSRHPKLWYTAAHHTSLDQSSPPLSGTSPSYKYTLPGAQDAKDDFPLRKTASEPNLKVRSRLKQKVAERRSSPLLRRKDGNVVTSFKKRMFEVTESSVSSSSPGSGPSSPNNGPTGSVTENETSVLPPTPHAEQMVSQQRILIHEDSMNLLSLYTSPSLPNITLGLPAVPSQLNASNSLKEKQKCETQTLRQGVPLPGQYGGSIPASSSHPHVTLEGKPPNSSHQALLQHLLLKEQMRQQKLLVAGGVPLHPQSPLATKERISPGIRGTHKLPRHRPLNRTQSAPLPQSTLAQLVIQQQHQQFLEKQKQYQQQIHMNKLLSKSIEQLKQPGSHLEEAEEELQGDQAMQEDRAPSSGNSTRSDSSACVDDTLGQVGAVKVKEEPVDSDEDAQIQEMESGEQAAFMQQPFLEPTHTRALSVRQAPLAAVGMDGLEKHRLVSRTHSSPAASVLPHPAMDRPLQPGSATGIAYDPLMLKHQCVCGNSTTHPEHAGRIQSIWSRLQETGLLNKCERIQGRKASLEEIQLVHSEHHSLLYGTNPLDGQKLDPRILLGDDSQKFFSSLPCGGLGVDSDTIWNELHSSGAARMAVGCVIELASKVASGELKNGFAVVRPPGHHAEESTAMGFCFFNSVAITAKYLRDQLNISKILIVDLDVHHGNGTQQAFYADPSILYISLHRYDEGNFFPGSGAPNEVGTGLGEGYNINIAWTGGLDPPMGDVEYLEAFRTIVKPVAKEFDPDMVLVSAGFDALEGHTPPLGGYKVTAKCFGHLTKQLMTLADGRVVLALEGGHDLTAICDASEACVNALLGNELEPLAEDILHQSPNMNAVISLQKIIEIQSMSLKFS
# [3] = target: T2, Histone deacetylase 1 (Homo sapiens, UniProt Q13547); experiment: Inhibition of HDAC1 (unknown origin)
# T2 sequence (Q13547 whole entry): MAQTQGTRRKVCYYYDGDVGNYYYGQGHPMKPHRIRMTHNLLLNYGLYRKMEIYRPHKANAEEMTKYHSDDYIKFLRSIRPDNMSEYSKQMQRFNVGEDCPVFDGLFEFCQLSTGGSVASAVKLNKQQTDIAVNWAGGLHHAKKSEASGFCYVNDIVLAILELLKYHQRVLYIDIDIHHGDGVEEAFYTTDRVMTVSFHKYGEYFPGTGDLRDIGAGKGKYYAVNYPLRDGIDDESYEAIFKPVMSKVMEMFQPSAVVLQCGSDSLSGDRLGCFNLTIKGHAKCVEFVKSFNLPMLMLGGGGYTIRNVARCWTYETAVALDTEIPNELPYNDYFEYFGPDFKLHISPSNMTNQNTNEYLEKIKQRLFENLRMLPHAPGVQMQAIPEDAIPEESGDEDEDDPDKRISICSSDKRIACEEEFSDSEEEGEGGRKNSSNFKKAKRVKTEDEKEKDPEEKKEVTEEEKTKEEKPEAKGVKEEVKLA
# [4] = target: Histone deacetylase 5 (Homo sapiens, UniProt Q9UQL6); experiment: Inhibition of HDAC5 (unknown origin)
# Chain of Histone deacetylase 5 (Q9UQL6 whole entry): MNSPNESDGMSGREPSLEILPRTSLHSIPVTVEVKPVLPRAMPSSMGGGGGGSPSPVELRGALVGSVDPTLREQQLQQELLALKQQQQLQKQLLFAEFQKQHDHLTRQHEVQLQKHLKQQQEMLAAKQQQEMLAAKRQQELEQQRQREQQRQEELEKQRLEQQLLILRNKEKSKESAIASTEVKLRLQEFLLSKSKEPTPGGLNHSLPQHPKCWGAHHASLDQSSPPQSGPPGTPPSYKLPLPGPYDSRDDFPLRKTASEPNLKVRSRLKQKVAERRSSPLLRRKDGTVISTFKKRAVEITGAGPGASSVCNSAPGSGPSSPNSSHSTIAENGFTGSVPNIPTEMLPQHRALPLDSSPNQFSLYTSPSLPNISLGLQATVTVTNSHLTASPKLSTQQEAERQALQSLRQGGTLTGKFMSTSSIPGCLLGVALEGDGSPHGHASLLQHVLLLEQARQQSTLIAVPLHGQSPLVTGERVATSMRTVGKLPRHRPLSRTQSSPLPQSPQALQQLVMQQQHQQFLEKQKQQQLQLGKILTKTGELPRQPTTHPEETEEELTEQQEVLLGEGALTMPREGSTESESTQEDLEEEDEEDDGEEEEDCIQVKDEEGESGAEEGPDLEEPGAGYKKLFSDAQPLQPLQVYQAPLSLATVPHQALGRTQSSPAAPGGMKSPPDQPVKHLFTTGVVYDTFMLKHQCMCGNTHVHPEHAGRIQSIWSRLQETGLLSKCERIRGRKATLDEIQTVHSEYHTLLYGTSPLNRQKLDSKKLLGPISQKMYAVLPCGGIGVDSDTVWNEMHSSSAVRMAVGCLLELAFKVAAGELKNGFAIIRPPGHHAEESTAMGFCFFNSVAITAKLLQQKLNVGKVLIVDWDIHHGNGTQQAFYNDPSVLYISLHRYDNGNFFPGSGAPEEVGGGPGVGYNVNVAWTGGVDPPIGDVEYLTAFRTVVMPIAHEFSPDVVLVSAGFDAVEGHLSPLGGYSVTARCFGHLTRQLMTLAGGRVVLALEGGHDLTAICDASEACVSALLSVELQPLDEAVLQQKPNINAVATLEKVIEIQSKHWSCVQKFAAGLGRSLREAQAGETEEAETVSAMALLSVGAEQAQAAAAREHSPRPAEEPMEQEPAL
# [5] = target: T3, Histone deacetylase 3 (Homo sapiens, UniProt O15379); experiment: Inhibition of HDAC3 (unknown origin) preincubated for 90 mins
# T3 sequence (O15379 whole entry): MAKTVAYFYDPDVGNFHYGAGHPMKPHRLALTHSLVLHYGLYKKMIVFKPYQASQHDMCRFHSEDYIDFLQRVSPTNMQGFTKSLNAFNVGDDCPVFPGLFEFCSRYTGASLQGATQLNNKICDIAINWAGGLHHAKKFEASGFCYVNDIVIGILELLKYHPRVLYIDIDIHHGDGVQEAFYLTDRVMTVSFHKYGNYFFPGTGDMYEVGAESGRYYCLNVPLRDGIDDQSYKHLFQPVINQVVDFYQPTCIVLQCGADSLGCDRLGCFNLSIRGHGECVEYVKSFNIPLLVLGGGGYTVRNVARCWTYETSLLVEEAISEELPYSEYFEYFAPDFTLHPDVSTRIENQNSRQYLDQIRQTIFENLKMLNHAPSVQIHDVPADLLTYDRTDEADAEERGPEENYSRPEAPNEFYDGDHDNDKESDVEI
# [6] = target: T4, Histone deacetylase 8 (Homo sapiens, UniProt Q9BY41); experiment: Inhibition of HDAC8 (unknown origin)
# T4 sequence (Q9BY41 whole entry): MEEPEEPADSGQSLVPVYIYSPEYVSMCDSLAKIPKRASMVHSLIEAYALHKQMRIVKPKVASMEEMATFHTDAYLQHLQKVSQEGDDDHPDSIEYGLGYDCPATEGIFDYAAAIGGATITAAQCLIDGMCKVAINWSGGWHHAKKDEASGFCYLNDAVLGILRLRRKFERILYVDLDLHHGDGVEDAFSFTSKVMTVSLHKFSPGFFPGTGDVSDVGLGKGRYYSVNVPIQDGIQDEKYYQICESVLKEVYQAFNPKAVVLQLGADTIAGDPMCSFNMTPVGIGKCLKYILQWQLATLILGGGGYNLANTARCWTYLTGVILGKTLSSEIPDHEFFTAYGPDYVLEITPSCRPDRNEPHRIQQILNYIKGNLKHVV
# [7] = target: T1, Histone deacetylase 2; experiment: Inhibition of HDAC2 (unknown origin)
# [8] = target: T1, Histone deacetylase 2; experiment: Inhibition of HDAC2 (unknown origin) preincubated for 90 mins
# [9] = target: T2, Histone deacetylase 1; experiment: Inhibition of HDAC1 (unknown origin) preincubated for 90 mins
# [10] = target: T1, Histone deacetylase 2; experiment: Inhibition of HDAC2 (unknown origin) preincubated for 120 mins
# [11] = target: T2, Histone deacetylase 1; experiment: Inhibition of HDAC1 (unknown origin) preincubated for 30 mins
# [12] = target: T3, Histone deacetylase 3; experiment: Inhibition of HDAC3 (unknown origin)
# [13] = target: T3, Histone deacetylase 3; experiment: Inhibition of HDAC3 (unknown origin) preincubated for 60 mins
# [14] = target: T5, Histone deacetylase 7 (Homo sapiens, UniProt Q8WUI4); experiment: Inhibition of HDAC7 (unknown origin)
# T5 sequence (Q8WUI4 whole entry): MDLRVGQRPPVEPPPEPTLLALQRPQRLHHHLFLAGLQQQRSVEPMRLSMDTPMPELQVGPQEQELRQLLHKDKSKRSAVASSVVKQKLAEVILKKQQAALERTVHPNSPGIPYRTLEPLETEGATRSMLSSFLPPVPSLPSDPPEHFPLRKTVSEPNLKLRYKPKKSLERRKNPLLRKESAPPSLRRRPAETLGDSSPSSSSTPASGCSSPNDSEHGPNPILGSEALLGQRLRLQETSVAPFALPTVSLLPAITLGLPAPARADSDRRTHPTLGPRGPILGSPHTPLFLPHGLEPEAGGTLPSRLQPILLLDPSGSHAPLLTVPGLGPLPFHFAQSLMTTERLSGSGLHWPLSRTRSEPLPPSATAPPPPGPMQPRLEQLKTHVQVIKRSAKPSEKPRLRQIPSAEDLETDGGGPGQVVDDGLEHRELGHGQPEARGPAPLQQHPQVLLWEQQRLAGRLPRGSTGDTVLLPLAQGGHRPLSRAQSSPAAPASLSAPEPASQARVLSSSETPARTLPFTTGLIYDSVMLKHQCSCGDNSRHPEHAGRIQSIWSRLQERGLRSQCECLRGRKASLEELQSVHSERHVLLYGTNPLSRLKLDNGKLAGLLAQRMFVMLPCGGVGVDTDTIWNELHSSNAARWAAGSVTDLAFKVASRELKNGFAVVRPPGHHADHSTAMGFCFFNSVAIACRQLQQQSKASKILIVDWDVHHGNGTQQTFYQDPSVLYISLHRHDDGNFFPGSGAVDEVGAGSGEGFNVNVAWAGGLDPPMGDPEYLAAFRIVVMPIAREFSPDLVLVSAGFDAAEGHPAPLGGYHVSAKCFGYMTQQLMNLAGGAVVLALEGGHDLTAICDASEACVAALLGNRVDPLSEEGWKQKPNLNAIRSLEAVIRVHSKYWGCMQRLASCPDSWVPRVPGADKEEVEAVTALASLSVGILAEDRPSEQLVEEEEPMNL
# [15] = target: T3, Histone deacetylase 3; experiment: Inhibition of HDAC3 (unknown origin) at 1 uM preincubated for 1 hr followed by 100-fold dilution and subsequent substrate addition measured after 1 hr; details: time 2.0 hrs
# [16] = target: T2, Histone deacetylase 1; experiment: Inhibition of HDAC1 (unknown origin) preincubated for 5 mins
# [17] = target: T3, Histone deacetylase 3; experiment: Inhibition of HDAC3 (unknown origin) preincubated for 5 mins
# [18] = target: Histone deacetylase 4 (Homo sapiens, UniProt P56524); experiment: Inhibition of HDAC4 (unknown origin)
# Chain of Histone deacetylase 4 (P56524 whole entry): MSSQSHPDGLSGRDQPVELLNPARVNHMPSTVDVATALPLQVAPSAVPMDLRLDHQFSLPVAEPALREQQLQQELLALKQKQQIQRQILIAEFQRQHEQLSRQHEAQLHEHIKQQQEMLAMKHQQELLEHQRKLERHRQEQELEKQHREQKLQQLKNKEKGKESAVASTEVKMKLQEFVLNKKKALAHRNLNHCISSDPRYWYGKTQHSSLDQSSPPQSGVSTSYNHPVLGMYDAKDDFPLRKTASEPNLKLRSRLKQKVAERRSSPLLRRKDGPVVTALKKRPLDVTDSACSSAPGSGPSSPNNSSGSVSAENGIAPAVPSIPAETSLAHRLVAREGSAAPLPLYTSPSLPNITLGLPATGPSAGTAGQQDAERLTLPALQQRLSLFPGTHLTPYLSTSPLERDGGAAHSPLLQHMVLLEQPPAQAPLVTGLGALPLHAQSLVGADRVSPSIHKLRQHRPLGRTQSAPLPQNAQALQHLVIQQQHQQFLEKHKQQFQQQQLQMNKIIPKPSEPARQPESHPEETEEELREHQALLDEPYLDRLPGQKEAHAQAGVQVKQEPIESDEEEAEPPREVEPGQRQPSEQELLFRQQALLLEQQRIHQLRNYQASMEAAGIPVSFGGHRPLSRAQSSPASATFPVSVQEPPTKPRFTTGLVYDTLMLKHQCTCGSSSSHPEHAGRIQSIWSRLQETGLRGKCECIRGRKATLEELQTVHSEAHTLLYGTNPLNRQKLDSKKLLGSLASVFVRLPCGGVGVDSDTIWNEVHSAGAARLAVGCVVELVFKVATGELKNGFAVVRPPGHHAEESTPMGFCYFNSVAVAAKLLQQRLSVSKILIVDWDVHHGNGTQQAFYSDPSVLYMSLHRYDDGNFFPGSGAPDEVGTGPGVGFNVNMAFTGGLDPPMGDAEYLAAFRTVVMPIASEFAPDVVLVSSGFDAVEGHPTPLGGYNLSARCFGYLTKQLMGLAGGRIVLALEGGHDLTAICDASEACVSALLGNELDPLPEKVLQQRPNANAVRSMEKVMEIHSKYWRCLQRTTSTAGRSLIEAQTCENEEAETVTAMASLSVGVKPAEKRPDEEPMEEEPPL
# [19] = target: T6, Protein deacetylase HDAC6 (Homo sapiens, UniProt Q9UBN7); experiment: Inhibition of HDAC6 (unknown origin)
# T6 sequence (Q9UBN7 whole entry): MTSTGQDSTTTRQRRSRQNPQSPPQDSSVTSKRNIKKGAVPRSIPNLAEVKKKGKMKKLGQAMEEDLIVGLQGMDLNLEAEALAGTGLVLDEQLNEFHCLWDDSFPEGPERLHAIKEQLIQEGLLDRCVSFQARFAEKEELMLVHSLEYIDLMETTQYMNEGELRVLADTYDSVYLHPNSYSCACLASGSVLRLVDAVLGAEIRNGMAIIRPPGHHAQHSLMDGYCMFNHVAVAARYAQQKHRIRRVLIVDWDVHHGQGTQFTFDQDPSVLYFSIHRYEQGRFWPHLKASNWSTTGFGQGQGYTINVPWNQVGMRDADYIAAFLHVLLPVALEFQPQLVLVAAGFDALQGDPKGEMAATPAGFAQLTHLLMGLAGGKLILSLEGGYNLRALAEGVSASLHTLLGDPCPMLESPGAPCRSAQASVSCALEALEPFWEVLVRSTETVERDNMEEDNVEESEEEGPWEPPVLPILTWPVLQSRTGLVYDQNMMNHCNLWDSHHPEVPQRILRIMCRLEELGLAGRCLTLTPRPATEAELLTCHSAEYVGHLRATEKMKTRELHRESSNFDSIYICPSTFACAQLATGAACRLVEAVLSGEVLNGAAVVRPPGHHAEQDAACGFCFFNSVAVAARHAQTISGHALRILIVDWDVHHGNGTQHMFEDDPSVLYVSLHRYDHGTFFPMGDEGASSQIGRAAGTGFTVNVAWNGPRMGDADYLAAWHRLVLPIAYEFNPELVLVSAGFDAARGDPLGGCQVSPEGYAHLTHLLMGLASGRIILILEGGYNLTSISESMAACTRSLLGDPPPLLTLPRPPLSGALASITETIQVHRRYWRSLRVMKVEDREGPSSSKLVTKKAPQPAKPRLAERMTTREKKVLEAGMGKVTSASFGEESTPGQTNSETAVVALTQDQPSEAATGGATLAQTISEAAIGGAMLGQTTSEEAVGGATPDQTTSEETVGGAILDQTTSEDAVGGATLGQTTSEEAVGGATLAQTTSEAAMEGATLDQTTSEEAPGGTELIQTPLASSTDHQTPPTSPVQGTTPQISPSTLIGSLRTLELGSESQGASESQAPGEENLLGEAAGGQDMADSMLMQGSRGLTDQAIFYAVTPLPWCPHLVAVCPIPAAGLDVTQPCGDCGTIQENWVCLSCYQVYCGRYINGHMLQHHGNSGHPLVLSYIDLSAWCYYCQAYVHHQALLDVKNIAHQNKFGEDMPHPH
# [20] = target: T7, Histone deacetylase 11 (Homo sapiens, UniProt Q96DB2); experiment: Inhibition of HDAC11 (unknown origin)
# T7 sequence (Q96DB2 whole entry): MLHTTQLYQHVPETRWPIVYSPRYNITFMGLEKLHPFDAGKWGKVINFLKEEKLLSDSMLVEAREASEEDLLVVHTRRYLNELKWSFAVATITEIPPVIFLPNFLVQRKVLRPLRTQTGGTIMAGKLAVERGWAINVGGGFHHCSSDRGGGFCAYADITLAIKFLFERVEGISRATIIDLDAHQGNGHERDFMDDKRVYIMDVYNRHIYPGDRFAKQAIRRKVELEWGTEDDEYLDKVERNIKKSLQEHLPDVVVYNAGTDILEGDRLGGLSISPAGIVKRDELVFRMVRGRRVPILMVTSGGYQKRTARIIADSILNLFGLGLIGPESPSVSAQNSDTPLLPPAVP
# [21] = target: T1, Histone deacetylase 2; experiment: Inhibition of HDAC2 (unknown origin) preincubated for 60 mins
# [22] = target: T3, Histone deacetylase 3; experiment: Inhibition of HDAC3 (unknown origin) preincubated for 30 mins
# [23] = target: T1, Histone deacetylase 2; experiment: Mixed-type inhibition of HDAC2 (unknown origin) at 17.8 to 60 nM by Lineweaver-Burk plot analysis; details: dose 17.8-60 nM
# [24] = target: T2, Histone deacetylase 1; experiment: Inhibition of HDAC1 (unknown origin) at 1 uM preincubated for 1 hr followed by 100-fold dilution and subsequent substrate addition measured after 1 hr; details: time 2.0 hrs
# [25] = target: T2, Histone deacetylase 1; experiment: Inhibition of HDAC1 (unknown origin) preincubated for 60 mins
# [26] = test system: MV4-11; experiment: Antiproliferative activity against human MV4-11 cells; type: functional, cell-based
# [27] = target: T3, Histone deacetylase 3; experiment: Inhibition of HDAC3 (unknown origin) preincubated for 120 mins
# [28] = target: T1, Histone deacetylase 2; experiment: Inhibition of HDAC2 (unknown origin) preincubated for 30 mins
# [29] = target: T2, Histone deacetylase 1; experiment: Mixed-type inhibition of HDAC1 (unknown origin) at 17.8 to 60 nM by Lineweaver-Burk plot analysis; details: dose 17.8-60 nM
# [30] = target: T8, Polyamine deacetylase HDAC10 (Homo sapiens, UniProt Q969S8); experiment: Inhibition of HDAC10 (unknown origin)
# T8 sequence (Q969S8 whole entry): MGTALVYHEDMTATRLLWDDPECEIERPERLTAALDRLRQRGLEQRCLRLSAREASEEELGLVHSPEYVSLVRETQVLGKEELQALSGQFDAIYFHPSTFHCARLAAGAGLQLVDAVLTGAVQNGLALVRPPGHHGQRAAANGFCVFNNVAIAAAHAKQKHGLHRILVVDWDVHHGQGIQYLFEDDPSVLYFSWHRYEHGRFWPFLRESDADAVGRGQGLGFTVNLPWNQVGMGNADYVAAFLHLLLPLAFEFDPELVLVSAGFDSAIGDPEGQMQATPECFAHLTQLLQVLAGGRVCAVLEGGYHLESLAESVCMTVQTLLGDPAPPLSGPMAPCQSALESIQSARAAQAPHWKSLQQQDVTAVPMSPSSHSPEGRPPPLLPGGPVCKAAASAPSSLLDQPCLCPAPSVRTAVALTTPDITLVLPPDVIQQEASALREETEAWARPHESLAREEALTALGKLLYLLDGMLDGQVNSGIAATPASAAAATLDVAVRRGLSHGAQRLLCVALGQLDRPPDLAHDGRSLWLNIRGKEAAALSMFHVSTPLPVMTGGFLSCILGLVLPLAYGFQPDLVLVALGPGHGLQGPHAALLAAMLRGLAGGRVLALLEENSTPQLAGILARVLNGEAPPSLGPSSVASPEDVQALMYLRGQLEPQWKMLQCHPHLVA
# [31] = target: T3, Histone deacetylase 3; experiment: Mixed-type inhibition of HDAC3 (unknown origin) at 17.8 to 60 nM by Lineweaver-Burk plot analysis; details: dose 17.8-60 nM
# [32] = target: T2, Histone deacetylase 1; experiment: Inhibition of HDAC1 (unknown origin) preincubated for 120 mins
# [33] = target: T1, Histone deacetylase 2; experiment: Inhibition of HDAC2 (unknown origin) preincubated for 5 mins
# [34] = target: Histone deacetylase (Homo sapiens) (UniProt Q13547+O15379+Q9UBN7+Q92769+Q9UQL6+Q8WUI4+Q9BY41+Q96DB2+P56524+Q9UKV0+Q969S8); experiment: Inhibition of HDAC in human MV4-11 cells assessed as histone H3 acetylation preincubated for 3 hrs followed by compound washout and measured after 6 hrs by Western blot analysis; type: cell-based
structure (smiles),measurement,setting,value
CCCNNC(=O)CCCCCCC(=O)Nc1ccccc1,inhibition,[1],Active
same,IC50,[2],> 10000 nM
same,IC50,[3],45.2 nM
same,IC50,[4],> 10000 nM
same,IC50,[5],17.2 nM
same,IC50,[6],> 10000 nM
same,IC50,[7],125 nM
same,IC50,[8],163 nM
same,IC50,[9],41.8 nM
same,IC50,[10],146 nM
same,IC50,[11],89.2 nM
same,IC50,[12],20.3 nM
same,IC50,[13],22.9 nM
same,IC50,[14],> 10000 nM
same,inhibition,[15],Active
same,IC50,[16],176 nM
same,IC50,[17],58.2 nM
same,IC50,[18],> 10000 nM
same,IC50,[19],> 10000 nM
same,IC50,[20],> 10000 nM
same,IC50,[21],214 nM
same,IC50,[22],30.1 nM
same,inhibition,[23],Active
same,inhibition,[24],Active
same,IC50,[25],62.9 nM
same,IC50,[26],587 nM
same,IC50,[27],17.7 nM
same,IC50,[28],304 nM
same,inhibition,[29],Active
same,IC50,[30],> 10000 nM
same,inhibition,[31],Active
same,IC50,[32],48.4 nM
same,IC50,[33],406 nM
same,inhibition,[34],Active
